{
  "source": "patent US8501733B2",
  "about": "“Spiroaminodihydrothiazine derivatives” (Eisai R&D Management Co., Ltd., priority 2008, dated 2013)",
  "note": "pIC50: −log10 of the molar value.",
  "data": [
    {"test_system": "Aβ42", "experiment": "Quantification of Aβ peptide in culture of neurons from rat fetus brain (Aβ ELISA)", "format": "cell-based", "details": "Primary cortical neuron, 72 h, IC50 for decrease in the Aβ42 concentration in the medium, three days after addition of the compound, read-out: Aβ42 production reducing effect", "method": "Quantification of Aβ Peptide in Culture of Neurons from Rat Fetus Brain\n(1) Rat Primary Neuronal Culture\nPrimary neuronal cultures were prepared from the cerebral cortex of embryonic day 18 Wistar rats (Charles River Japan, Yokohama, Japan). Specifically, the embryos were aseptically removed from pregnant rats under ether anesthesia. The brain was isolated from the embryo and immersed in an ice-cold L-15 medium (such as Invitrogen Corp. Cat #11415-064, Carlsbad, Calif., USA, or SIGMA L1518). The cerebral cortex was collected from the isolated brain under a stereoscopic microscope. The cerebral cortex fragments collected were enzymatically treated in an enzyme solution containing 0.25% trypsin (Invitrogen Corp. Cat #15050-065, Carlsbad, Calif., USA) and 0.01% DNase (Sigma D5025, St. Louis, Mo., USA) at 37° C. for 30 minutes to disperse the cells. Here, the enzymatic reaction was stopped by adding inactivated horse serum to the solution. The enzymatically treated solution was centrifuged at 1,500 rpm for five minutes to remove the supernatant. 5 to 10 ml of a medium was added to the resulting cell mass. Neurobasal medium (Invitrogen Corp. Cat #21103-049, Carlsbad, Calif., USA) supplemented with 2% B27 supplement (Invitrogen Corp. Cat #17504-044, Carlsbad, Calif., USA), 25 μM 2-mercaptoethanol (2-ME, WAKO Cat #139-06861, Osaka, Japan), 0.5 mM L-glutamine (Invitrogen Corp. Cat #25030-081, Carlsbad, Calif., USA), and Antibiotics-Antimycotics (Invitrogen Corp. Cat #15240-062, Carlsbad, Calif., USA) was used as the medium (Neurobasal/B27/2-ME). However, the above Neurobasal medium not supplemented with 2-ME (Neurobasal/B27) was used for the assay. The cells were redispersed by mild pipetting of the cell mass to which the medium was added. The cell dispersion was filtered through a 40-μm nylon mesh (Cell Strainer, Cat #35-2340, Becton Dickinson Labware, Franklin Lakes, N.J., USA) to remove the remaining cell mass, and thus a neuronal cell suspension was obtained. The neuronal cell suspension was diluted with the medium and then plated in a volume of 100 μl/well at an initial cell density of 5×10^5 cells/cm^2 in a 96-well polystyrene culture plate pre-coated with poly-L or D-lysine (Falcon Cat #35-3075, Becton Dickinson Labware, Franklin Lakes, N.J., USA coated with poly-L-lysine using the method shown below, or BIOCOAT™ cell environments Poly-D-lysine cell ware 96-well plate, Cat #35-6461, Becton Dickinson Labware, Franklin Lakes, N.J., USA). Poly-L-lysine coating was carried out as follows. 100 μg/ml of a poly-L-lysine (SIGMA P2636, St. Louis, Mo., USA) solution was aseptically prepared with a 0.15 M borate buffer (pH 8.5). […] of the solution was added to the 96-well polystyrene culture plate and incubated at room temperature for one or more hours or at 4° C. overnight or longer. Thereafter, the coated 96-well polystyrene culture plate was washed with sterile water four or more times, and then dried or rinsed with, for example, sterile PBS or medium, and used for cell plating. The plated cells were cultured in the incubator at 37° C. in 5% CO2-95% air for one day. Then, the total amount of the medium was replaced with a fresh Neurobasal/B27/2-ME medium, and then the cells were cultured for further three days.\nThe drug was added to the culture plate on Day 4 of culture as follows. The total amount of the medium was removed from the wells, and 180 μl/well of Neurobasal medium not containing 2-ME and containing 2% B-27 (Neurobasal/B27) was added thereto. […]", "values": [
      {"smiles": "N#Cc1ccc(C(=O)Nc2ccc3c(c2)C2(CCO3)CCSC(N)=N2)nc1", "note": "(stereo not drawn) [Compound 11, (−)—N-(2′-amino-2,3,5′,6′-tetrahydrospiro[chromene-4,4′-[1,3]thiazin]-6-yl)-5-cyanopyridine-2-carboxamide]", "pIC50": 7.28},
      {"smiles": "NC1=NC2(CCOc3ccc(NC(=O)c4ncc(Br)cn4)cc32)CCS1", "note": "(centres unmarked) [Compound 15, N-(2′-amino-2,3,5′,6′-tetrahydrospiro[chromene-4,4′-[1,3]thiazin]-6-yl)-5-bromopyrimidine-2-carboxamide]", "pIC50": 7.20},
      {"smiles": "NC1=NC2(CCOc3ccc(NC(=O)c4ncc(Cl)cc4Cl)cc32)CCS1", "note": "(centres unmarked) [Compound 18, N-(2′-amino-2,3,5′,6′-tetrahydrospiro[chromene-4,4′-[1,3]thiazin]-6-yl)-3,5-dichloropyridine-2-carboxamide]", "pIC50": 7.33},
      {"smiles": "NC1=NC2(CCOc3ccc(NC(=O)c4ccc(C(F)(F)F)cn4)cc32)CCS1", "note": "(centres unmarked) [Compound 12, N-(2′-amino-2,3,5′,6′-tetrahydrospiro[chromene-4,4′-[1,3]thiazin]-6-yl)-5-trifluoromethylpyridine-2-carboxamide]", "pIC50": 7.15},
      {"smiles": "NC1=NC2(CCOc3ccc(NC(=O)c4ccc(Br)cn4)cc32)CCS1", "note": "(centres unmarked) [Compound 16, N-(2′-amino-2,3,5′,6′-tetrahydrospiro[chromene-4,4′-[1,3]thiazin]-6-yl)-5-bromopyridine-2-carboxamide]", "pIC50": 7.57}
    ]}
  ]
}
